Experimental findings from ChEMBL document CHEMBL6109088 (J Med Chem, 2025) are described below.

Data set [1] can be described thus: in vitro. The conditions noted are these: dog, MDCK.
A short description of data set [2]: in vitro. The conditions noted are these: human, liver microsomes. A general note: Liver microsomes are a subcellular fraction often used to study metabolism.
The subject of the next data set is SARS-CoV-2. Briefly: microbe, parasite or virus in culture. As to conditions: Severe acute respiratory syndrome coronavirus 2, USA-WA1/2020, Vero C1008.
The nature of the next data set: in vivo. The conditions noted are these: rat, po.

pEC50: −log10 of the molar value.

The molecule `CC(C)[C@H](NC(=O)C(F)(F)F)C(=O)N1C[C@H]2[C@@H]([C@H]1C(=O)N[C@@H](C[C@@H]1CCNC1=O)C(=O)c1noc(-c3ccccc3)n1)C2(C)C` showed a Papp A→B in the data set “in vitro [1]” of 3.5 ×10⁻⁶ cm/s. The intrinsic metabolic clearance (microsomal CLint) in the data set “in vitro [2]” was determined as 40.5 µL/min/mg. This molecule also gave a negative-log EC50 (pEC50) in the data set with SARS-CoV-2 of 6.71.
In “in vivo”, `COc1cccc2[nH]c(C(=O)N[C@@H](CC(C)C)C(=O)N[C@H](C#N)C[C@@H]3CCNC3=O)cc12` displayed a bioavailability of 7%. In the data set “in vitro [1]”, this molecule showed a Papp A→B of 0.945 ×10⁻⁶ cm/s.
As for `CN(C)C(=O)N[C@H](C(=O)N1C[C@H]2[C@@H]([C@H]1C(=O)N[C@H](C#N)C[C@@H]1CCNC1=O)C2(C)C)C(C)(C)C`, the apparent permeability from apical to basolateral (Papp A→B) in “in vitro [1]” is 0.383 ×10⁻⁶ cm/s. Moreover, the microsomal CLint in “in vitro [2]” amounted to 22.2 µL/min/mg. In the data set with SARS-CoV-2, this molecule had a pEC50 of 5.75.
Take `CC(C)[C@H](NC(=O)C(F)(F)F)C(=O)N1C[C@H]2[C@@H]([C@H]1C(=O)N[C@H](C#N)C[C@@H]1CCNC1=O)C2(C)C`: the bioavailability in “in vivo” was determined as 20%. The molecule also displayed a Papp A→B in “in vitro [1]” of 0.721 ×10⁻⁶ cm/s. Also, the microsomal CLint in the data set “in vitro [2]” was found to be 7.9 µL/min/mg. This molecule also had a negative-log EC50 (pEC50) in the data set with SARS-CoV-2 of 6.64.
The matching figures for `CC(C)(C)[C@H](NS(C)(=O)=O)C(=O)N1C[C@H]2[C@@H]([C@H]1C(=O)N[C@H](C#N)C[C@@H]1CCNC1=O)C2(C)C`: below 1%, below 0.193 ×10⁻⁶ cm/s, 11.4 µL/min/mg and 6.27.
For the molecule `COC(=O)N[C@H](C(=O)N1C[C@H]2[C@@H]([C@H]1C(=O)N[C@H](C#N)C[C@@H]1CCNC1=O)C2(C)C)C(C)(C)C`, the bioavailability in “in vivo” amounted to 21%. In addition, the Papp A→B in “in vitro [1]” was determined as 0.61 ×10⁻⁶ cm/s. In addition, the intrinsic clearance (microsomal CLint) in “in vitro [2]” was determined as 8.1 µL/min/mg.
`CC(C)[C@H](NC(=O)C(F)(F)F)C(=O)N1C[C@H]2[C@@H]([C@H]1C(=O)N[C@@H](C[C@@H]1CCNC1=O)C(=O)c1noc(C(C)(C)C)n1)C2(C)C`: the apparent permeability from apical to basolateral (Papp A→B) in “in vitro [1]” came out at 0.5 ×10⁻⁶ cm/s. The intrinsic clearance (microsomal CLint) in “in vitro [2]” is below 7 µL/min/mg. In the data set with SARS-CoV-2, the pEC50 was 6.20.
The corresponding values for `COc1ccc2nc(C(=O)[C@H](C[C@@H]3CCNC3=O)NC(=O)[C@@H]3[C@@H]4[C@H](CN3C(=O)[C@@H](NC(=O)C(F)(F)F)C(C)C)C4(C)C)sc2c1` are 13.8 ×10⁻⁶ cm/s, 20.7 µL/min/mg and 6.21.
The matching figures for `CC(C)(C)[C@H](NC(=O)C(F)(F)F)C(=O)N1C[C@H]2[C@@H]([C@H]1C(=O)N[C@@H](C[C@@H]1CCNC1=O)C(=O)CO)C2(C)C`: below 0.481 ×10⁻⁶ cm/s, below 7 µL/min/mg and above 6.48.
The matching figures for `COCC(=O)[C@H](C[C@@H]1CCNC1=O)NC(=O)[C@@H]1[C@@H]2[C@H](CN1C(=O)[C@@H](NC(=O)C(F)(F)F)C(C)(C)C)C2(C)C`: 0.499 ×10⁻⁶ cm/s, 11.8 µL/min/mg and 6.87.
Take `CC(C)(C)[C@H](NS(=O)(=O)C(F)(F)F)C(=O)N1C[C@H]2[C@@H]([C@H]1C(=O)N[C@H](C#N)C[C@@H]1CCNC1=O)C2(C)C`: the Papp A→B in the data set “in vitro [1]” was determined as 0.7 ×10⁻⁶ cm/s. This molecule displayed a microsomal CLint in “in vitro [2]” below 7.47 µL/min/mg. Besides, the negative logarithm of the EC50 (pEC50) in the data set on SARS-CoV-2 is 6.75.
In the data set “in vitro [1]”, `CC(C)(C)[C@H](NC(=O)CC(F)(F)F)C(=O)N1C[C@H]2[C@@H]([C@H]1C(=O)N[C@H](C#N)C[C@@H]1CCNC1=O)C2(C)C` displayed a Papp A→B of 0.916 ×10⁻⁶ cm/s. Further, the intrinsic metabolic clearance (microsomal CLint) in the data set “in vitro [2]” came to 12.7 µL/min/mg. For the same molecule, in the data set with SARS-CoV-2, the negative logarithm of the EC50 (pEC50) is 6.07.
The matching figures for `CC(C)[C@H](NC(=O)C(F)(F)F)C(=O)N1C[C@H]2[C@@H]([C@H]1C(=O)N[C@@H](C[C@@H]1CCNC1=O)C(=O)c1nc3cc(C(F)(F)F)ccc3s1)C2(C)C`: 8.8 ×10⁻⁶ cm/s, 45.3 µL/min/mg and 7.19.
As to `CNC(=O)N[C@H](C(=O)N1C[C@H]2[C@@H]([C@H]1C(=O)N[C@H](C#N)C[C@@H]1CCNC1=O)C2(C)C)C(C)(C)C`, the apparent permeability from apical to basolateral (Papp A→B) in “in vitro [1]” was found to be 0.62 ×10⁻⁶ cm/s. Besides, the intrinsic clearance (microsomal CLint) in the data set “in vitro [2]” is below 7.12 µL/min/mg.

One may read the Papp A→B as the apparent permeability from the apical to the basolateral side of a cell layer. Higher therefore signals fast passage. The microsomal CLint is the capacity of the preparation to metabolise the compound, expressed as a volume cleared per time. Higher therefore signals rapid turnover. As a reminder, the pEC50 is the negative decadic logarithm of the EC50, by convention in mol/L. Low values mean a high EC50, high ones a low EC50. As a reminder, the bioavailability is dose-corrected exposure relative to a reference, in per cent.
